A short description of the series: in vitro. The note with it: human, hela cells, % viability.

As a reminder, the viability is a read-out of living cells in per cent, often relative to untreated cells.

As to `COc1ccc2cc(/C=C(\C#N)c3nc(-c4cc5ccccc5oc4=O)cs3)c(Cl)nc2c1` [CBK261623], the viability at 28.5 h, 10 µM is 93.9%. On the same count and under the same terms, the same measure for `CC(C)C(C(=O)O)N(C)C(=O)OCc1ccccc1` (stereo not shown) [CBK286593]: 84.8%.

For the molecule `O=C(CSCCO)Nc1cccc2ccccc12` [CBK265623], the viability at 28.5 h, 10 µM amounted to 85.4%. As to `Nc1nc(=O)n([C@H]2C[C@@H](O)[C@@H](CO)O2)cc1I` [CBK201226], the viability at 28.5 h, 10 µM was determined as 90.4%. Same read-out and setting: the value for `COc1ccc2nc(-n3nc(C(=O)NCc4ccncc4)c4ccccc43)sc2c1` [CBK048521] was 94.9%; that for `COc1cc(NC(=O)c2ccco2)c(C(=O)O)cc1OC` [CBK076926] was 91.6%. Still for that read-out and setting: the value for `O=c1oc(-c2cccc(F)c2)nc2ccc(Cc3ccc4nc(-c5cccc(F)c5)oc(=O)c4c3)cc12` [CBK262856] was 120%; that for `Cc1ccc(-c2nc3ccccc3[nH]2)cc1NC(=O)CSc1ccc(Cl)cc1` [CBK268942] was 98.3%; that for `CCN(Cc1ccc(C#N)cc1F)C(=O)NC(C)c1cnn(C)c1C` (stereo not shown) [CBK305643] was 108%. On the same count and under the same terms, the same measure for `O=C(O)c1cccc(NS(=O)(=O)c2ccccc2)c1` [CBK155710]: 79.7%; for `NC1CC(c2cc(NCc3cn4ccccc4n3)ncn2)C1` (stereo not shown) [CBK306631]: 112%; for `COc1cc(CN2CCN(C(=O)c3cccc(F)c3)CC2)cc(OC)c1O` [CBK074633]: 95.2%.

As to `CCCCC(c1cccnc1)N(C)C(=O)Cn1ccccc1=O` (stereo not shown) [CBK306936], the viability at 28.5 h, 10 µM came out at 104%. Still for that read-out and setting: the same measure for `CCc1cn(CC(C(=O)OC)N(C)C)c(=O)[nH]c1=O` (stereo not shown) [CBK289706]: 107%.

For `Clc1cncc(N2CCNCC2)c1` [CBK022556F], under “bulk resorufin, single well”, the viability at 28.5 h, 10 µM stood at 117%.

In the case of `CC(C)c1ccc(S(=O)(=O)NCCC(C)(C)C)cc1` [CBK043640], the viability at 28.5 h, 10 µM turned out to be 95.4%. Still for that read-out and setting: the value for `CC1CC(C)CN(C(=O)Cn2ncc3cccn3c2=O)C1` (stereo not shown) [CBK283805] was 81.2%; that for `O=C(NC(c1ccccc1)c1ccccc1)N1CCN(Cc2ccccc2)CC1` [CBK155630] was 86.3%; that for `S=c1n(CN2CCC3(CC2)OCCO3)nc(-c2ccccc2Cl)n1-c1ccccc1` [CBK265222] was 88.4%. The same measure, in the same setting: the value for `CC1CCN(S(=O)(=O)c2cc(C(=O)OCC(=O)c3ccccc3)c(Cl)cc2Cl)CC1` [CBK264470] was 95.6%; that for `COc1ccccc1CC(=O)N1CC[C@@H]2NC(=O)[C@H]3C[C@H](NC(=O)C4CC4)CN3C(=O)[C@H]21` [CBK289267] was 103%. Same read-out and setting: the value for `Cc1cc(C)c(C)c(S(=O)(=O)N(CCO)CCO)c1C` [CBK269082] was 90.5%; that for `Cc1[nH]c2cc(C(=O)NCCn3nccc3C)ccc2c1C` [CBK283313] was 92.8%. As for `CN1CC(CO)CCC1Cc1c[nH]c2ccccc12` (stereo not shown) [CBK011468], the viability at 28.5 h, 10 µM came to 92.4%. Regarding `C=C(C)Cn1c(=O)c2c(nc3[nH]c(C)c(C)n32)n(C)c1=O` [CBK288184], the viability at 28.5 h, 10 µM is 102%.

Consider `NS(=O)(=O)c1cc(C(=O)OCCNC(=O)c2ccccc2)c(Cl)cc1Cl` [CBK265193], for which the viability at 28.5 h, 10 µM was 88.9%. Consider `CCc1nn(CC(=O)N(CC)CC)c(=O)c2cc3ccsc3n12` [CBK284132], for which the viability at 28.5 h, 10 µM was 88.2%. Still for that read-out and setting: the same measure for `COc1ccc(OC)c(C(O)CN2CCCC(C(=O)N3CCCCCC3)C2)c1` (stereo not shown) [CBK286286]: 87.5%; for `Cc1c(NC(=O)CCCC(=O)O)c(=O)n(-c2ccccc2)n1C` [CBK286532]: 93.1%; for `O=C(O)C1CCN(C(=O)CCn2ccc3cc(Br)ccc32)CC1` [CBK286617]: 105%.

In the case of `COCC(C)NS(=O)(=O)c1cc(C)ccc1OC` (stereo not shown) [CBK270037], the viability at 28.5 h, 10 µM worked out at 85.6%.

For `O=C(O)C(Cc1ccccc1)N1C(=O)c2ccccc2C1=O` (stereo not shown) [CBK260904], the viability at 28.5 h, 10 µM turned out to be 97.6%.

`CC(=O)NC[C@@H]1C=C(C)[C@H](CC(=O)Nc2ccccn2)C[C@H]1C(C)C` [CBK289209]: the viability at 28.5 h, 10 µM was determined as 92.3%. The same measure, in the same setting: the same measure for `OCCN(Cc1cccnc1)Cc1cccn1-c1ccccc1F` [CBK283019]: 92.2%; for `OC(COc1c(Br)cccc1Br)CN1CCCCC1` (stereo not shown) [CBK003077T]: 90.9%; for `O=C(O)c1ccc(OCCNS(=O)(=O)c2ccc3ccccc3c2)cc1` [CBK299807]: 83.5%. The same measure, in the same setting: the same measure for `CC1(NC(=O)CC[N+]23CCN(CC2)CC3)CS(=O)(=O)CC1S(=O)(=O)[O-]` (stereo not shown) [CBK262518]: 92%; for `O=S(=O)(CCOc1ccccc1)N(CCOc1ccccc1)C1CCCCC1` [CBK022003]: 103%. Take `O=[N+]([O-])c1ccc(-n2cnc3ccccc32)c([N+](=O)[O-])c1` [CBK261120]: where the note is “bulk resorufin, single well”, the viability at 28.5 h, 10 µM stood at 91.9%. Consider `Cc1noc(C)c1NC(=O)c1cncn1C` [CBK200396], for which the viability at 28.5 h, 10 µM was 115%. The same measure, in the same setting: the value for `COc1cccc(NC(=O)CC(CN2CCN(CCC#N)CC2)C(=O)O)c1` (stereo not shown) [CBK286801] was 86.1%; that for `Cc1nc2c(c(=O)[nH]1)CN(Cc1ccc(-c3ccccc3)cc1)CC2` [CBK283952] was 99%. On the same count and under the same terms, the same measure for `COc1ccc2[nH]c3c(c2c1)CCNC31CCCN(Cc2ccc(OC(F)(F)F)cc2)C1` (stereo not shown) [CBK039387]: 113%. As for `C=CCN(c1ccccc1)S(=O)(=O)c1ccc(C(C)(C)CC)cc1` [CBK200036], the viability at 28.5 h, 10 µM turned out to be 95.7%. On the same count and under the same terms, the same measure for `O=C(NCCn1nc(-c2cccs2)ccc1=O)C1CCCCC1` [CBK283837]: 90.7%; for `Cc1ccccc1CCNC(=O)CCc1c(C)nc2nc(N)nn2c1C` [CBK304994]: 93.6%; for `CCC(C)N(C)CCNC(=O)Nc1ccc(F)c(-n2nnnc2C)c1` (stereo not shown) [CBK305176]: 101%. Still for that read-out and setting: the same measure for `O=C1CC2(CCN(C(=O)c3ccoc3)CC2)Oc2ccc3ccccc3c21` [CBK156444]: 91%; for `Cc1cccc(Cn2nc(C)c(NC(=O)COc3ccccc3)c2C)c1` [CBK270007]: 93.5%.

For the molecule `Cc1nn(C)c(Oc2ccc3c(c2)CCCC3)c1[N+](=O)[O-]` [CBK000273], the viability at 28.5 h, 10 µM amounted to 91.2%. Still for that read-out and setting: the same measure for `COc1cc(CNCc2cnn(C)c2)c(O)c(C(C)(C)C)c1` [CBK304721]: 85.8%; for `CC(=O)N1CCC2(C/C=C/C[C@H]3CN(C(=O)Cc4cccc(F)c4)CC[C@H]3NC(=O)CNC2=O)CC1` [CBK292103]: 93.6%; for `FCCOc1cncc(Cl)n1` [CBK113553]: 115%.

Turning to `COc1nc(-c2ccccc2)ccc1-c1noc(COc2ccccc2)n1` [CBK266841], the viability at 28.5 h, 10 µM amounted to 91.8%. Regarding `CCCC(=O)N1CCC(c2nnc(-c3ccsc3)o2)CC1` [CBK283377], the viability at 28.5 h, 10 µM was 85.5%. On the same count and under the same terms, the same measure for `COc1cc(CN2CCN(C/C=C/c3ccccc3)CC2)c([N+](=O)[O-])cc1OC` [CBK261550]: 86.4%; for `O=C(/C=C/c1cn([C@H]2C[C@@H](O)[C@@H](CO)O2)c(=O)[nH]c1=O)ON1C(=O)CCC1=O` [CBK201188]: 99.3%; for `CS(=O)(=O)N1CCCc2cc(-c3csc(N4CCCC4)n3)ccc21` [CBK306093]: 114%.

Consider `CC(=O)Nc1ccc(C(=O)CSc2nc(-c3ccccc3)c(-c3ccccc3)o2)cc1` [CBK266168], for which the viability at 28.5 h, 10 µM came to 87.6%.

Turning to `Cc1nn(C)cc1-c1cncn1C(C)c1ccc2c(c1)CCCO2` (stereo not shown) [CBK281798], the viability at 28.5 h, 10 µM amounted to 100%. `COc1cccc(NC(=O)CN2CCN(c3nc4ccc([N+](=O)[O-])cc4s3)CC2)c1` [CBK264089]: the viability at 28.5 h, 10 µM was found to be 93.7%. With `COc1cccc(C(NC(=O)c2cccc(Cn3ccnc3C)c2)c2ccccc2)c1` (stereo not shown) [CBK285620], the viability at 28.5 h, 10 µM came out at 111%. Still for that read-out and setting: the value for `NC1=C(c2nc3ccccc3s2)C(=O)CN1CCCN1CCOCC1` [CBK265925] was 109%; that for `CCN1CCN(C(=O)CN(C)S(=O)(=O)c2ccc(Cl)cc2)CC1` [CBK267218] was 100%. On the same count and under the same terms, the same measure for `Cc1ccc(S(=O)(=O)NC2c3cccc4cccc(c34)C2Sc2ccccn2)cc1` (stereo not shown) [CBK265840]: 91.6%; for `Cc1[nH]c2ccccc2c1C(=O)CSc1nc2scc(-c3ccco3)c2c(=O)n1-c1ccccc1` [CBK267933]: 93.3%. Same read-out and setting: the value for `O=C(OCC#CCSc1nnc(-c2ccncc2)o1)c1sc2ccccc2c1Cl` [CBK265677] was 94.6%. As for `N#CCCN(Cc1cccnc1)C(=O)Cc1noc2ccccc12` [CBK304001], the viability at 28.5 h, 10 µM turned out to be 113%.

As to `O=C(Nc1ccccc1C(F)(F)F)c1ccc(-n2cnnn2)cc1` [CBK300521], the viability at 28.5 h, 10 µM was determined as 86.8%. On the same count and under the same terms, the same measure for `CN(C)CCN(C)c1nc(-c2ccc(Oc3ccccc3)cc2)cn2ccnc12` [CBK066469]: 99.8%. The same measure, in the same setting: the same measure for `O=C(O)c1ccc(NS(=O)(=O)c2ccc(Br)cc2)cc1` [CBK034058]: 97.6%; for `CC(C)N(Cc1cccnc1)C(=O)Cn1c(C2CC2)nc2ccccc21` [CBK306156]: 104%. The same measure, in the same setting: the same measure for `OC(COc1ccc(-c2ccccc2)cc1)CN1CCN(Cc2ccccc2)CC1` (stereo not shown) [CBK074855C]: 94.6%; for `OCCOc1ccc(OCCOc2nccnc2N2CCNCC2)cc1` [CBK014349G]: 93.9%; for `Cc1cc(-c2ccccc2)nn1C(CC(=O)O)C(=O)O` (stereo not shown) [CBK263480]: 91.6%. As to `COc1cc(OC)c(NC(=O)CSc2ccccn2)cc1Cl` [CBK267303], the viability at 28.5 h, 10 µM turned out to be 92.5%. As for `O=C(Nc1ccc(S(=O)(=O)Nc2ncccn2)cc1)c1cc([N+](=O)[O-])ccc1Cl` [CBK263717], the viability at 28.5 h, 10 µM was 89.9%. Same read-out and setting: the same measure for `NS(=O)(=O)c1ccc(NC(=S)N2CCN(CCO)CC2)cc1` [CBK265891]: 87.5%. The same measure, in the same setting: the same measure for `CN1CCN(c2ncc(-c3ccc(N4CCOCC4)cc3)n3ccnc23)CC1` [CBK091226]: 103%.

Source of the values: PMC12040169 (PLOS Biology, 2025).
